The values below come from patent publication US4721775A, “Effective peptides related to the luteinizing hormone releasing hormone from L-amino acids” (Board of Regents, The University of Texas System, priority 1985, dated 1988).

“And” between values parts separate entries of the source, which are not always exact repeats. Equal values may be shown once. “Also recorded” adds a separate entry of the source. Non-standard residues stand in square brackets, D forms with d. Residues, ends and D or L forms follow the SMILES beside them. pGlu = O=C1CC[C@@H](C(=O)O)N1

The subject of one assay is release of LH. Description: Release of LH in rats after sc injection. Format: in vivo. The text has this:
(§1) The data on the release of LH and FSH in rats by modifications of LHRH with one structural change are in Table II.
(§2) Exclusive of the salmon-LHRH, only one of the six decapeptides with two structural changes had significant activity.

Assay [1] has as its system release of FSH. As to the kind of experiment: Release of FSH in rats after sc injection. Particulars: for FSH % change: LHRH = 100. Format: in vivo.
From the text: as §1, §2

Assay [2] concerns rat anterior pituitary cells in primary culture. Particulars: cited from earlier work.
The subject of another assay is rat pituitary cells. To be noted: fraction of the activities of LHRH or words; cited from earlier work.
Assay [3] relates to release of FSH. As to the kind of experiment: Release of FSH in rats after sc injection. To be noted: dose and time as stated in the source. Format: in vivo.
The mark [4] stands for this setting: release 60 min. after sc injection, dosage of peptide 3000 ng.
The mark [5] stands for this setting: 15 min. after sc injection, 100 ng, experiment marked *.
The mark [6] stands for this setting: 15 min. after sc injection, 1000 ng, experiment marked *.
[7] abbreviates: release 15 min. after sc injection, dosage of peptide 50 ng.
[8] abbreviates: release 15 min. after sc injection, dosage of peptide 100 ng.
The mark [9] stands for this setting: release 15 min. after sc injection, dosage of peptide 1000 ng.
The mark [10] stands for this setting: release 30 min. after sc injection, dosage of peptide 50 ng.
The mark [11] stands for this setting: release 30 min. after sc injection, dosage of peptide 1000 ng.
[12] abbreviates: release 60 min. after sc injection, dosage of peptide 300 ng.

On to `CC(C)C[C@H](NC(=O)[C@H](Cc1c[nH]c2ccccc12)NC(=O)CNC(=O)[C@H](Cc1ccc(O)cc1)NC(=O)[C@H](CO)NC(=O)[C@H](Cc1c[nH]c2ccccc12)NC(=O)[C@H](Cc1c[nH]cn1)NC(=O)[C@@H]1CCC(=O)N1)C(=O)N1CCC[C@H]1C(=O)NCC(N)=O` [[Trp^7 Leu^8]--LHRH, pGlu--His--Trp--Ser--Tyr--Gly--Trp--Leu--Pro--Gly--NH2, reference compound] ([pGlu]HWSYGWLPG-NH2), for which the LH % change in the assay on release of LH (60 min. after sc injection, 3000 ng, LHRH = 100) amounted to 3.0%. In addition, in the assay with release of LH (setting [4]), the LH is 2.5 ng/mL. In the assay on release of FSH [1] (60 min. after sc injection, 3000 ng), this compound came in with an FSH % change of 22%. The FSH in the assay on release of FSH [1] (setting [4]) is 258 ng/mL. The “activities to release LH compared with LHRH (Table I)” value in assay [2] (fraction of the activities of LHRH or words) is “extremely low activities”. Further, in assay [2] (in vitro, rat pituitary cells, Sherwood et al. (a), Miyamoto et al. (b)), the “activity (potency) to release LH relative to P/O LHRH” value is listed as 2-3%. For the same compound, the “activities to release FSH compared with LHRH (Table I)” value with rat pituitary cells is “extremely low activities”.
On to `N=C(N)NCCC[C@H](NC(=O)[C@H](Cc1c[nH]c2ccccc12)NC(=O)CNC(=O)[C@H](Cc1c[nH]cn1)NC(=O)[C@H](CO)NC(=O)[C@H](Cc1c[nH]c2ccccc12)NC(=O)[C@H](Cc1c[nH]cn1)NC(=O)[C@@H]1CCC(=O)N1)C(=O)N1CCC[C@H]1C(=O)NCC(N)=O` [[His^5 Trp^7]--LHRH, p-Glu His Trp Ser His Gly Trp Arg Pro Gly-NH2] ([pGlu]HWSHGWRPG-NH2), for which the LH % change with release of LH (15 min. after sc injection, 50 ng, LHRH = 100) is recorded as 188%; in the assay on release of LH (15 min. after sc injection, 1000 ng, experiment marked *, LHRH* = 100), 59%; in the assay with release of LH (30 min. after sc injection, 50 ng, LHRH = 100) it was 67%; in the assay with release of LH (30 min. after sc injection, 1000 ng, LHRH = 100) it was 40%. The LH was 13 ng/mL with release of LH (setting [5]); 23 ng/mL in the assay on release of LH (setting [6]); 30 ± 3 ng/mL in the assay with release of LH (setting [7]); 30 ng/mL in the assay with release of LH (setting [8]); 39 ng/mL and 78 ng/mL in the assay on release of LH (setting [9]); 12 ng/mL in the assay with release of LH (setting [10]). Also, the LH came to 51 ng/mL in the assay with release of LH (setting [11]), 26.0 ng/mL in the assay on release of LH (setting [12]) and 138 ng/mL in the assay on release of LH (setting [4]). Further, the “release of LH compared with LHRH” value in the assay with release of LH (sc injection, dose and time as stated in the source) is “as active as LHRH; also recorded: significantly positive, but less than that at the higher dosage; also recorded: released significantly more LH and FSH than did LHRH at a dosage of 50 ng; also recorded: equivalent to that released by the same dosage of LHRH; also recorded: significantly positive, but lower than that released at the higher dose level; also recorded: both peptides had comparable activities”. The compound also displayed an FSH % change in the assay on release of FSH [1] (15 min. after sc injection, 50 ng) of 121%. Further, the FSH in the assay with release of FSH [1] (setting [5]) is 346 ng/mL; in the assay with release of FSH [1] (setting [6]) it was 456 ng/mL; with release of FSH [1] (setting [7]), 663 ng/mL; with release of FSH [1] (setting [8]), 502 ng/mL; with release of FSH [1] (setting [9]) it was 562 ng/mL and 429 ng/mL; in the assay with release of FSH [1] (setting [10]), 387 ng/mL. The FSH in the assay on release of FSH [1] (setting [11]) worked out at 857 ng/mL; in the assay on release of FSH [1] (setting [12]), 624 ng/mL; in the assay on release of FSH [1] (setting [4]), 1448 ng/mL. Also, in the assay on release of FSH [3], the “release of FSH compared with LHRH” value is “as active as LHRH; also recorded: equivalent to that from LH; also recorded: released significantly more LH and FSH than did LHRH at a dosage of 50 ng; also recorded: equivalent to that released by the same dosage of LHRH; also recorded: higher than that for LH; also recorded: both peptides had comparable activities”.
